One molecule from paper PMC12203428, “Discovery of Clonixeril as a Sub-Femtomolar Modulator of the Human STING Receptor” (ACS Central Science, 2025) can be followed below.

Data set [1] concerns hSTING WT pathway (THP1 Dual KI-hSTING-R232 cells, IRF3 luciferase reporter). The experiment in a line: THP-1 IRF3 luciferase inhibition assay with diABZI3 as activator. The data set is classed as cell-based, human. From the text: To validate our initial observations that CXL has extraordinary potency for a small molecule antagonist, we extended our THP-1 cell luciferase reporter experiment by using diABZI3 as an agonist and using BBCl-amidine (a previously reported STING antagonist) as an antagonist control. , Furthermore, because the results were so unprecedented, we conducted these experiments in a different laboratory (U. Mass Chan. vs Univ. So. FL) and with different individuals performing the experiments.
The cells were grown in RPMI 1640, 2 mM L-glutamine, 25 mM HEPES, 10% heat-inactivated fetal bovine serum, 100 μg/mL Normocin, and Pen-Strep (100 U/mL–100 μg/ mL). For selection, the cells were passaged with and without the addition of antibiotics (10 μg/mL Blasticidin and 100 μg/mL Zeocin) to the growth medium every other passage. […] The cells were counted in a cell counter to obtain a cell density of 1 × 10^6 cells/mL of the test media. […] QUANTI-Luc (InvivoGen) reagent was then diluted in 30 mL of water, 75 μL was added to each well, and luminescence was read immediately (PerkinElmer Envision 2105). The data were normalized to the DMSO only controls (without diABZI3 or 2′,3′-cGAMP), and percentage activation was calculated based on the diABZI3 or 2′,3′-cGAMP only control. […]

The next data set concerns the target SUMO-hSTING CTD (Homo sapiens, UniProt Q86WV6, H232R). The experiment in a line: Dynamic light scattering of STING oligomerization.
The test system of data set [2] is p-hSTING puncta in HEK293 cells. The experiment in a line: HEK293 immunofluorescence of p-hSTING. Type of data set: cell-based, human. The method, then: STING undergoes condensed cis-oligomerization as part of its signal transduction pathway and punctate structure formation of p-hSTING in the perinuclear region is indicative of hSTING oligomerization. We had speculated that CXL might affect hSTING oligomerization. […] HEK293 cells were treated with either 10 aM or 1 pM CXL for 1 h followed by 2 μM 2′,3′-cGAMP for 90 min. Cells treated with vehicle control for 1 h and then 2 μM of 2′,3′-cGAMP for 90 min were used as a positive control. At a 1 pM concentration of CXL, both p-hSTING and punctate structure formation were diminished.
HEK293 cells were seeded into four-chambered slides (5,000 cells/well.) 36 h later, sample 1 was first treated with vehicle control for 1 h and then transfected with 2 μM 2′,3′-cGAMP (InvivoGen) using Escort IV transfection reagent (Sigma Aldrich) for 1 h and 30 min. Samples 2 and 3 were first transfected with 10 aM and 1 pM CXL, respectively, for 1 h, followed by 2 μM 2′,3′-cGAMP for 1 h and 30 min. […] DMSO concentration was kept constant across all treatment groups. Cells were fixed with 4% paraformaldehyde for 15 min and immunostained with p-STING antibody at 4 °C overnight with light agitation. The slides were incubated with Alexa 594 rabbit secondary antibody for 1 h at RT. Subsequently, the slides were stained with Phalloidin conjugated to FITC (488) for 30 min at RT, mounted with solution containing 4′,6′-diamidino-2-phenylindole (DAPI) and imaged on a Fluorescent Microscope.

Data set [3] can be described thus: Hydrolysis of clonixeril to clonixin by HPLC. Type of data set: physicochemical. The method, then:
To determine clonixeril’s hydrolytic stability and evaluate its potential as an oral drug, an aqueous solution was concentrated for analysis at 20 µM. The sample was analyzed by HPLC using an […]
The UV spectra of these peaks were compared by diode array and found to be identical with maximum absorbance at 280nm and 343nm. […]
the minor first peak matched the molecular weight of clonixin (M+H)+ and the second major peak matched the molecular weight of clonixeril (M+H)+. Data was generated by measuring the ratio between the two peaks. Hydrolysis of clonixeril to clonixin was measured by HPLC over seven days using a 20 µM aqueous solution.
96.8% clonixeril (Figure S4B). Most of the hydrolysis occurred within the first two days at an average rate of […], and then slowed down to an average rate of 0.07% per hour by day seven (Figure S4B). The rate decrease correlated with an observable decrease in solution pH as a product of hydrolysis. Further samples solubilized in pH 2.00 phosphoric acid and pH 1.99 hydrochloric acid confirmed that the rate decreases to an average of 0.014% per hour over […]
a seven-day period. […]

Data set [4] concerns p-IRF3 in HEK293S cells (hSTING pathway). Description: Phospho-IRF3 Western blot in HEK293S cells with diABZI3. Type of data set: cell-based, human. The following applies: 100 fM compound, 100 nM diABZI3, preliminary.
Method: HEK293T cells transfected with hSTINGWT cells were seeded in a 6-well plate in DMEM
(supplemented with 10% heat-inactivated fetal bovine serum, 1X Corning Penicillin-Streptomycin
solution and 0.01mg/mL Blasticidin). Upon reaching ~80% confluence, cells were pretreated with
varying concentrations of CXL in FBS-free DMEM for 2 hours. This was followed by treatment
with diABZI3 (100nM) for 1 hour. The cells were scraped, harvested by centrifugation at 1000 x g
for 3 mins. The resulting pellet is resuspended in 1X PBS with 1X Halt protease & phosphatase
inhibitor and 1% NP-40. Cell lysis was performed by probe sonication. The cell lysate is further
denatured in 1X SDS loading buffer by boiling for 10 mins and separated by SDS-PAGE (4-20%
gel). The separated proteins were electrically transferred to a PVDF membranes separately,
which was probed with primary (α-pIRF3, α-IRF3 & α-STING) and secondary (goat anti-rabbit IR
dye 680 & goat anti-mouse IR dye 800CW) antibodies. The blots were visualized using a LICOR
Image Analyzer. All the experiments were performed at least in duplicate.

SUMO-hSTING CTD, sequence (Q86WV6 155-343 H232R): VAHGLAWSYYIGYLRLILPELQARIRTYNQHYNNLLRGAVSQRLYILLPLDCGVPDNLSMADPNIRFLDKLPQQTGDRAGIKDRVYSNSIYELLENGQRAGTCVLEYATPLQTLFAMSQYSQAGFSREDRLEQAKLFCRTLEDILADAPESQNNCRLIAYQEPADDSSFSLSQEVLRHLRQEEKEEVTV
Method for SUMO-hSTING CTD: (B) DLS was performed for 2 h (n = 960 measurements) with 50 nM STING exposed to analytes. […] Blue blocks indicate size counts as a percentage to overall mass over selected mass ranges. […] Measurements were made using a Malvern Zetasizer Nano ZS set to 40 measurements at 1 s/measurement and 24 runs.

`Cc1c(Cl)cccc1Nc1ncccc1C(=O)OCC(O)CO` (stereo not shown) [CXL, clonixeril]: the “Response to diABZI3 with CXL 100 nM to 100 aM” value in data set [1] (50 nM diABZI3) is “inverse dose response”. The “Effect of higher concentrations of CXL on diABZI3 signal” value in data set [1] (50 nM diABZI3, Figure 2C) is recorded as “enhancement of the diABZI3 signal”. On SUMO-hSTING CTD (50 nM STING, 50 nM 2′,3′-cGAMP), the “Lowest concentration at which effect on oligomerization is observed” value is listed as 100 aM. In addition, the “Reduction in 2′,3′-cGAMP driven SUMO-hSTING CTD oligomerization” value at SUMO-hSTING CTD (50 nM STING, 50 nM 2′,3′-cGAMP) is reported as “alters the ability of SUMO-hSTING CTD to oligomerize”. Moreover, on SUMO-hSTING CTD (50 nM STING, analyte alone), the “SUMO-hSTING CTD oligomerization without 2′,3′-cGAMP present” value is recorded as “moderate amount of oligomerization”. The “Size of protein aggregates” value at SUMO-hSTING CTD (100 aM, 50 nM STING CTD, reviewer's reading) is recorded as “about 75 nm”. For the same molecule, the “p-hSTING and punctate structure formation” value in data set [2] (1 pM CXL 1 h, then 2 μM 2′,3′-cGAMP 90 min) was “diminished”. Moreover, the “2′,3′-cGAMP induced p-hSTING puncta formation in the perinuclear region” value in data set [2] (10 aM CXL) is “may affect”. Further, the “Levels of hSTING phosphorylation” value in data set [2] (10 aM CXL) is given as “qualitatively unaffected”. For the same molecule, the “Initial hydrolysis, clonixeril” value in data set [3] (20 µM aqueous solution) was found to be 96.8%; in data set [3] (5% sodium bicarbonate) it was 88.2%. Also, the “Initial hydrolysis, clonixin” value is recorded as 3.2% in data set [3] (20 µM aqueous solution) and 11.8% in data set [3] (5% sodium bicarbonate). Moreover, the “Average rate of hydrolysis” value in data set [3] (aqueous solution, by day seven) was determined as 0.07 % per hour; in data set [3] (aqueous solution, first two days), 0.13 % per hour; in data set [3] (pH 2.00 phosphoric acid and pH 1.99 hydrochloric acid, seven-day period), 0.014 % per hour. The values for the Hydrolysis entry in data set [3] (pH of 1.0) and in data set [3] (pH=2.0) were “relatively slow hydrolysis” and “surprisingly slow”, respectively. Also, in data set [4], the “Effect on p-IRF3” value is recorded as “potent antagonistic behavior”.
